Active and inactive are the calls of the source. No cut-off for these calls is given here.
Key:
[1] = biological target: T1, Protein-arginine deiminase type-3 (Homo sapiens) (UniProt Q9ULW8); assay: Inhibition of human recombinant PAD3 expressed in HEK293T cells assessed as conversion of BAEE to sodium benzoyl-L-citrulline up to 1 mM by colorimetric analysis; type: cell-based; conditions: HEK-293T
T1 sequence (whole entry): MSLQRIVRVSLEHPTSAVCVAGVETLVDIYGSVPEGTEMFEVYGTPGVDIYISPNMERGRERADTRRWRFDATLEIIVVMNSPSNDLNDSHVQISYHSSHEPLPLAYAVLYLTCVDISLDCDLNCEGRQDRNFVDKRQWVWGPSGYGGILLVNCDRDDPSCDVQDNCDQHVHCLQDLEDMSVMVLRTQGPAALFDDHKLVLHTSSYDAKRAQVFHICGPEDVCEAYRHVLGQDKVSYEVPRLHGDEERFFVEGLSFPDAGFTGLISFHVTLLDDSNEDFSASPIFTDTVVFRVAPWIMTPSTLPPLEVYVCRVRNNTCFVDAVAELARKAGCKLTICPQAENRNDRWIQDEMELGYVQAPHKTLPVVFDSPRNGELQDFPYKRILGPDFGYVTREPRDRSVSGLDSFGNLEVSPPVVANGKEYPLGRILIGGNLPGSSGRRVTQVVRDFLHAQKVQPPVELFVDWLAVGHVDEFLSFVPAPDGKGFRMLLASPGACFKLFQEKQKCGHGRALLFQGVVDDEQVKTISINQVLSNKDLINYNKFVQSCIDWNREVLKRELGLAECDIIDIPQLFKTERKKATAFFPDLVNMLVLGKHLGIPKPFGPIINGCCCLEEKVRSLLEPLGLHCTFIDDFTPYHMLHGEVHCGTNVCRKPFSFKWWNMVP

[2] = system: NSC; assay: Cytotoxicity against human NSC assessed as decrease in cell survival at 0.1 to 1000 uM after 24 hrs by methylene blue assay; type: cell-based
[3] = system: NSC; assay: Inhibition of thapsigargin-induced cell death in human NSC assessed as increase in cell survival up to 1 mM treated 15 mins prior to thapsigargin addition measured after 24 hrs drug treatment by methylene blue assay; type: functional, cell-based
[4] = biological target: T1, Protein-arginine deiminase type-3 (Homo sapiens); assay: Competitive reversible inhibition of human recombinant PAD3 expressed in HEK293T cells assessed as rate of citrullination of BAEE at 10 to 100 uM by Michaelis-Menten equation analysis using colorimetry; type: cell-based; conditions: HEK-293T
[5] = system: NSC; assay: Inhibition of thapsigargin-induced cell death in human NSC assessed as increase in cell survival at 100 nM treated 15 mins prior to thapsigargin addition measured after 24 hrs drug treatment by methylene blue assay; type: functional, cell-based
[6] = system: HEK-293T; assay: Inhibition of thapsigargin-induced cell death in human HEK293T cells overexpressing human recombinant PAD3 assessed as increase in cell survival at 10 uM treated 15 mins prior to thapsigargin addition measured after 24 hrs drug treatment by methylene blue assay; type: functional, cell-based
[7] = biological target: T1, Protein-arginine deiminase type-3 (Homo sapiens); assay: Inhibition of human recombinant PAD3 expressed in HEK293T cells assessed as conversion of BAEE to sodium benzoyl-L-citrulline at 100 uM by colorimetric analysis; type: cell-based; conditions: HEK-293T
[8] = system: NSC; assay: Inhibition of thapsigargin-induced cell death in human NSC assessed as increase in cell survival at >10 uM treated 15 mins prior to thapsigargin addition measured after 24 hrs drug treatment by methylene blue assay; type: functional, cell-based
[9] = system: NSC; assay: Inhibition of thapsigargin-induced cell death in human NSC assessed as cell survival at <=1 uM treated 15 mins prior to thapsigargin addition measured after 24 hrs drug treatment by methylene blue assay; type: functional, cell-based
[10] = system: HEK-293T; assay: Inhibition of thapsigargin-induced cell death in human HEK293T cells overexpressing human recombinant PAD3 assessed as increase in cell survival at 100 uM treated 15 mins prior to thapsigargin addition measured after 24 hrs drug treatment by methylene blue assay; type: functional, cell-based

Row | Compound | inhibition [1] | Activity [2] | inhibition [3] | inhibition [4] | inhibition [5] | inhibition [6] | inhibition [7] | inhibition [8] | inhibition [9] | inhibition [10]
1 | O=C1CN=C(NCCc2c[nH]c3ccccc23)N1 | Active | Non-toxic | Active | Active | Active | Active | Active | – | – | –
2 | N=C(CCl)NCCC[C@H](NC(=O)c1ccccc1)C(N)=O | – | – | – | – | – | – | – | Active | inactive | Active
